This note sets out measurements from a melting point compilation (Tetko et al.; mined from patent text by program, amines drawn as free bases though some values may be those of a salt).

Structures are written as SMILES.

Turning to `NC(=S)c1ncccc1O`, the melting point was 150 to 151 °C.
`Cn1c(=O)n(Cc2ccc(C#N)cc2)c(=O)c2nc(-c3ccc(/C=C/C(=O)O)cc3)[nH]c21` gave a melting point greater than 300 °C.
The value for `N[C@@H]1CN2C(=O)N(c3cc(Cl)nc(Cl)c3)C(=O)[C@@]2(Cc2ccc(OC(F)(F)F)cc2)C1` was 151 °C; that for `COC(=O)c1ccc(CCc2csc(NC(C)=O)n2)cc1` was 170 to 171 °C.
The compound `CCOC(=O)C(C)N1c2ccccc2Sc2ccc(C#N)cc21` (racemic) gave a melting point of 117 to 118 °C.
In turn, `COc1coc2cc(NS(C)(=O)=O)c(Oc3ccccc3)cc2c1=O` yielded a melting point of 164 to 166 °C.
For `Oc1cc(Br)c2oc(-c3ccc(O)c(F)c3F)nc2c1` the value was 258 to 260 °C; for `C#CCOc1nc(-n2ncc(C(=O)OCC)c2N)c(C(F)(F)F)cc1Cl`, 118 to 119 °C.
For `O=c1c(N2CCCNCC2)nc2cc(F)ccc2n1-c1ccccc1`, the melting point was 151 to 152 °C.
The compound `CCOC(=O)C(C(=O)OCC)C(=O)c1ccc(C(F)(F)F)cc1[N+](=O)[O-]` showed a melting point of 59 to 60 °C.
As to `CCOC(=O)c1cn(C2CC2)c2nc(Cl)c(F)c(C)c2c1=O`, the melting point was in the range of 170 to 171 °C.
The value for `C(=C\c1ncno1)/c1ccccc1` was 53 to 55 °C; that for `CC(C)(O)[C@H]1CC[C@H](Cc2cn(-c3ccc(F)cc3)c3ncccc3c2=O)CC1` was 208 to 209 °C.
`Nc1ccc2c(c1)C(=Cc1cccs1)c1ccccc1-2` came in with a melting point of 143 °C.
For `CC(=O)OCC1OC(OC2C(COC(C)=O)OC(O)(Br)C(OC(C)=O)C2OC(C)=O)C(OC(C)=O)C(OC(C)=O)C1OC(C)=O` (configuration not stated), the melting point fell in the range of 97 to 99 °C.
Compound `CCN(C(=O)C(C)CSC)c1sc(-c2cccnc2)nc1Cl` (configuration not stated) had a melting point of 79 to 81 °C.
Compound `COc1ccc2nc(COc3ccc(NC(C)=O)cc3)sc2c1` yielded a melting point of 145 to 147 °C.
In turn, `Cn1cncc1C(O)(c1ccc(CO)cc1)c1ccc2c(c1)c(-c1cccc(Cl)c1)cc(=O)n2C` (configuration not stated) showed a melting point of 273 °C.
The value for `Fc1ccc(Nc2ccnc(Cl)n2)cc1` was 172 to 174 °C; that for `CCC12CCC3c4ccc(OC)cc4CCC3C1C=CC2=O` (configuration not stated) was 158 to 160 °C; that for `COC(=O)NC[C@H]1CN(c2ccc(-c3nc(Cn4cccn4)cs3)c(F)c2)C(=O)O1` was 142 to 144 °C.
`O=CC(Cc1ccccc1)N1C(=O)c2ccccc2C1=O` (configuration not stated) had a melting point of 115 to 117 °C.
For the compound `COc1cc(C=c2[nH]c(=O)c(=Cc3ccc(OCc4ccccc4)cn3)[nH]c2=O)cc(OC)c1`, the melting point lay in the range of 237 to 239 °C.
Compound `CP(=O)(O)CCC(=O)Nc1c(Br)cc(Br)cc1Br` had a melting point of 248 °C.
As to `O=c1c(CCl)coc2c1COc1ccccc1-2`, the melting point lay within 163 to 165 °C.
The value for `Cc1nn(-c2ccccn2)c2nc3ccccc3c(OCC(C)C)c12` was 117 to 120 °C; that for `CC1(C)C(=O)Nc2cc3[nH]c(C4CC4)nc3cc21` was 266 to 268 °C; that for `O=C(NCCNCC1COc2ccccc2O1)C12CC3CC(CC(C3)C1)C2` (configuration not stated) was 147 to 149 °C.
`CC1(C)c2ccc([N+](=O)[O-])cc2C(NC(=O)Nc2ccccc2)C1O` (configuration not stated) yielded a melting point of 194 to 195 °C.
`CCOC(=NC#N)N[C@@H]1c2cc(C#N)ccc2OC(C)(C)[C@H]1O` (relative stereo) showed a melting point of 193 to 196 °C.
The value for `COc1cc2ncc(C#N)c(Nc3ccc(F)cc3)c2cc1OC` was 282 to 285 °C; that for `CCCCCCC(C(=O)O)n1ccc2cc(-c3ccccc3C(=O)O)ccc21` (configuration not stated) was 115 to 120 °C; that for `O=C(NC(=O)c1ccccc1)NC1CCCc2ccccc21` (configuration not stated) was 166 to 169 °C.
Regarding `COc1cc(C[C@H](NC(=O)OC(C)(C)C)C(=O)O)cc(OC)c1OC`, the melting point lay within 76 to 80 °C.
As to `Oc1cccc(-c2nc3n(n2)CCc2ccccc2-3)c1`, the melting point fell in the range of 201 to 202 °C.
`CC(Oc1ccc(Oc2ccc3cc(Cl)ccc3n2)cc1)C(=O)Nc1ccc(C(F)(F)F)cc1` (configuration not stated): the melting point was 142 to 146 °C.
For `Cc1ccc(-c2nc(=O)c3ccccc3s2)n1C`, the melting point fell in the range of 194 to 196 °C.
`CN1CCC(n2ccc3ccccc32)CC1`: the melting point was 58 °C.
As for `CC(C)C(NC(=O)N1CCc2cc(S(=O)(=O)N3CCN(c4cccc(Cl)c4)CC3)ccc21)C(=O)O` (configuration not stated), the melting point was 185 to 186 °C.
For `O=C(C=Cc1ccc(O)cc1)c1c(O)cccc1O` the value was 190 to 192 °C; for `Cc1ccc2c(c1)N(CC(=O)c1ccccc1C)C(=O)C(NC(=O)Nc1cccc(C(=O)O)c1)CN2C(=O)OCc1ccccc1` (configuration not stated), 144 to 147 °C.
For `CC(=O)OC1CSC(Oc2ccc(-c3ccoc3)cc2F)C(OC(C)=O)C1OC(C)=O` (configuration not stated) the value was 137 °C; for `O=C(O)CCCCCCC=Cc1cccs1`, 45 to 46 °C; for `COC(=O)c1ccc(Oc2ccc(N3CCN(c4ccncc4)CC3)cc2)nc1`, 143 to 144 °C.
`COC(=O)c1ncc[nH]1` registered a melting point of 187 to 188 °C.
The value for `Clc1nccc(N2CCC3(CC2)COc2ccccc23)c1Cl` was 177 °C; that for `C=C1CC2C(CCC3(C)C2CCC3(O)C(C)=O)C2(C)CCC(=O)C=C12` (configuration not stated) was 218 to 220 °C; that for `CC(=O)Nc1ccc(F)c(F)c1` was 127 to 128 °C.
`CC1(C)Oc2ccc(C#N)cc2C(NC(=O)Nc2cccc(-c3ncco3)c2)C1O` (configuration not stated) showed a melting point of 130 to 135 °C.
The compound `O=C1Cc2cc(C(=O)N3CCN(Cc4ccccc4)CC3)ccc2N1` yielded a melting point of 151 to 153 °C.
The compound `Cc1cc(F)c(N)cc1-n1cc(C(=O)O)c(=O)c2cc(F)c(N)c(C)c21` showed a melting point greater than 240 °C.
Turning to `O=c1nc(-c2cccc(Cl)c2)c2cc(C(c3ccc(Cl)cc3)n3ccnc3)ccc2n1Cc1ccncc1` (configuration not stated), the melting point worked out at 61.4 °C.
In the case of `C=Cc1ccc(NS(C)(=O)=O)cc1`, the melting point turned out to be 97 °C.
The compound `COC(=O)c1ccccc1S(=O)(=O)Cc1c(O[C@H](Cn2ccnc2)c2ccccc2)ccc2c1CCCC2=O` registered a melting point of 203 to 205 °C.
Regarding `CCOC(=O)c1cn(C(=O)OCC(C)C)c2c(COC(C)=O)cc(C)cc2c1=O`, the melting point was 101 to 103 °C.
`Cn1cncc1C(O)(c1ccc(Cl)cc1)c1ccc2c(c1)c(-c1cccs1)cc(=O)n2C` (configuration not stated) showed a melting point greater than 260 °C.
The value for `COc1cc2c(c3c1OC(C)(C)C3)C(c1cccc(NC(=O)Nc3ccccn3)c1)=NC(C)(C)C2` was 189 to 191 °C; that for `CN1C(=O)CC[C@]2(C)c3ccc(-c4ccc(C(F)(F)F)cc4F)cc3CC[C@@H]12` was 72 to 79 °C; that for `COc1cccc(C2CCCCNC2=O)c1` (configuration not stated) was 116 to 117 °C.
Regarding `CC1(C)Cc2c(c(N3CCOCC3)nc3sc4c(NCCCN5CCCC5=O)ncnc4c23)CO1`, the melting point was 216 to 217 °C.
Turning to `Cc1cc(C(F)(F)F)nn1CC(=O)N1CCC(c2nc(NC(=O)Nc3ccccc3)cs2)CC1`, the melting point was determined as 193 °C.
`NS(=O)(=O)c1ccc(N2N=C(C(F)(F)F)CC2c2ccc(F)cc2F)cc1` (configuration not stated) registered a melting point of 161 to 162 °C.
Take `NC(=O)N1C(=O)C(=C(OC(=O)c2cccc(C(=O)O)c2)c2cccs2)c2cc(F)c(Cl)cc21`: the melting point was in the range of 244 to 248 °C.
Compound `CN=C1CN(c2ccccc2)C(=O)N1C` had a melting point of 160 to 162 °C.
With `O=C(CCBr)OCN1C(=O)NC(c2ccccc2)(c2ccccc2)C1=O`, the melting point lay in the range of 133 to 134 °C.
Consider `O=c1[nH]cnc2cc(C(c3ccccc3)n3ccnc3)ccc12` (configuration not stated), for which the melting point turned out to be 205 °C.
In turn, `COc1cc(CC#N)ccc1OCC#Cc1ccccc1` displayed a melting point of 74 to 75 °C.
For the compound `COCc1cnc2c(NC(=O)c3c(Cl)cccc3Cl)cccc2c1Cn1ccnc1`, the melting point lay within 190 to 191 °C.
Compound `C=CCOc1ccc(C#N)c(O)c1` displayed a melting point of 134 to 136 °C.
With `C=CCNc1cc(C(=O)O)cc(S(N)(=O)=O)c1Oc1ccccc1`, the melting point fell in the range of 223 to 225 °C.
As for `CC(C)(C)OC(=O)N[C@H]1CC[C@H](CCOS(C)(=O)=O)CC1`, the melting point was determined as 116 °C.
As for `CN(C)C(=O)c1sc(C(c2ccc(Cl)cc2)c2c(Cl)cc(-n3ncc(=O)[nH]c3=O)cc2Cl)nc1-c1ccccc1` (configuration not stated), the melting point amounted to 150 °C.
Compound `CCOc1ccc(OCCCCCN2CCN(c3nccs3)CC2)cc1` registered a melting point of 79 to 81 °C.
In the case of `COc1ccc(Nc2nc(Cl)nc(OCC3CCCCC3)n2)cc1Cl`, the melting point was determined as 114 °C.
`O=C(NCC12CC3CC(CC(C3)C1)C2)c1cc(-c2ccc(F)cc2C(=O)O)ccc1Cl` registered a melting point of 126 to 128 °C.
Turning to `O=C(NC(=O)c1c(F)cccc1F)Nc1ccc(C(F)(F)F)cc1F`, the melting point came out at 197 °C.
The value for `CCOC(=O)CCCCc1oc(-n2ccnc2C)nc1-c1ccc(Cl)cc1` was 93 to 94 °C; that for `Cc1noc(NS(=O)(=O)c2ccccc2-c2ccc(-c3ncco3)cc2O)c1C` was 111 to 115 °C.
For `COc1ccc(Nc2ccn(Cc3ccccc3)n2)cc1` the value was 68 to 71 °C; for `CC(C)c1ccc(N(Cc2cnn(C(C)C)c2)C(=O)C2CCCc3c(O)cccc32)cc1` (configuration not stated), 185 °C.
Take `Oc1ccccc1-c1cc(-c2ccc(F)c(F)c2)cc(-c2ccc(Cl)cc2)n1`: the melting point fell in the range of 146 to 148 °C.
`CN(C)C(=O)N[C@H]1CC[C@H](CCN2CCN(c3ccc(O)c(Cl)c3Cl)CC2)CC1` displayed a melting point of 278 to 280 °C.
The value for `FC(F)(F)c1ccccc1-c1cccc(C=NNC(=S)NN2CCCC2)n1` was 142 to 146 °C; that for `CC1(c2ccccc2)CCC(=O)C=C1C(=O)O` (racemic) was 206 °C; that for `COc1c(N2CCC(n3ccnn3)C2)c(F)c(N)c2c(=O)c(C(=O)O)cn(C3CC3)c12` (configuration not stated) was 208 °C.
In turn, `CN1CCN(CCCNc2ncc3cc(-c4c(Cl)cccc4Cl)c(NC(=O)Nc4ccc(Cl)cc4)nc3n2)CC1` came in with a melting point of 176 to 181 °C.
For `COc1cc(Nc2nccc(-c3ccc(N4CC[C@@H](N(C)C)C4)nc3)n2)cc(OC)c1OC` the value was 150 to 151 °C.
